# From patent US20210252028A1, “SYNTHETIC COMPOSITION FOR MICROBIOTA MODULATION” (Glycom A/S, priority 2016, published 2021)
# Legend:
# [1] = system: totality of B. longum + B. bifidum + B. animalis lactis + B. angulatum; assay: ITS profiling of the Bifidobacterium community in faeces of healthy adults after 2 weeks of HMO consumption; format: in vivo, human; settings: faecal analyses
# Protocol: (§1) A total of 100 male and female healthy adults are recruited to participate in the study. After a screening visit and run-in period of 1-2 weeks, the participants are selected and randomized into ten groups, each of 10 subjects. One group is administered a placebo product containing 2 grams of glucose. The remaining 9 groups are administered treatment product containing a) 20 g of 2′-FL, b) 10 g of 2′-FL, c) 5 g of 2′-FL, d) 20 g of LNnT, e) 10 g of LNnT, f) 5 g of LNnT, g) 20 g of a 2:1 mixture of 2′-FL and LNnT, h) 10 g of a 2:1 mixture of 2′-FL and LNnT, and i) 5 g of a 2:1 mixture of 2′-FL and LNnT for 2 weeks (the amounts correspond to a daily dosis). The placebo and treatment products are in powder form in a unit dosage container.
# (§2) The study runs for 2 weeks with the participants consuming either a placebo or a treatment product daily. Participants are instructed to consume the products in the morning with breakfast. Compliance is monitored through the interactive internet enabled system.
# (§3) To assess the Bifidobacterium community, ITS profiling of DNA samples is performed according to Milani et al. FEMS Microbiol. Ecol. 90, 493 (2014). […] Both B. adolescentis and B. pseudocatenulatum are members of the B. adolescentis phylogenetic group. It can be seen that oral ingestion of the HMOs clearly increases the abundance of B. adolescentis and/or B. pseudocatenulatum in the microbiota of healthy adults, as well as their relative abundance compared to the totality of other Bifidobacterium species.
# [2] = system: B. adolescentis phylogenetic group; assay: as above; format: in vivo, human; settings: for percentage increase of B. adolescentis phylogenetic group: healthy adults, 2 weeks, faecal analyses
# Protocol: as §1, §2, §3
Compound,percentage increase of totality of B. longum + B. bifidum + B. animalis lactis + B. angulatum ([1]; daily dose 5 g) [%],percentage increase of totality of B. longum + B. bifidum + B. animalis lactis + B. angulatum ([1]; daily dose 10 g) [%],percentage increase of totality of B. longum + B. bifidum + B. animalis lactis + B. angulatum ([1]; daily dose 20 g) [%],abundance of B. adolescentis and/or B. pseudocatenulatum and relative abundance compared to the totality of other Bifidobacterium species ([2]; healthy adults carrying the FUT2 mutation compared with secretors),percentage increase of B. adolescentis phylogenetic group ([2]; daily dose 5 g) [%],percentage increase of B. adolescentis phylogenetic group ([2]; daily dose 10 g) [%],percentage increase of B. adolescentis phylogenetic group ([2]; daily dose 20 g) [%]
2′-fucosyllactose [2′-FL],0,20,15,increases in a manner similar to those in secretors,50,325,120
"CC(=O)N[C@H]1[C@H](O[C@H]2[C@@H](O)[C@@H](CO)O[C@@H](O[C@H]3[C@H](O)[C@@H](O)C(O)O[C@@H]3CO)[C@@H]2O)O[C@H](CO)[C@@H](O[C@@H]2O[C@H](CO)[C@H](O)[C@H](O)[C@H]2O)[C@@H]1O (mixture of isomers) [LNnT, lacto-N-neotetraose]",50,130,105,–,90,195,185
